# Results taken from patent US20170274014A1, “COMBINATIONS OF LOW, IMMUNE ENHANCING, DOSES OF MTOR INHIBITORS AND CARS” (Novartis AG, priority 2014, published 2017).
# Where “and” joins values, the source holds several entries; their conditions need not be identical. Identical values can stand only once. Like-named read-outs stand apart in the source and are kept apart here.
# Legend:
# [1] = tested on: influenza vaccine strains (H1N1 A/California/07/2009, H3N2 A/Victoria/210/2009, B/Brisbane/60/2008); experiment: Influenza vaccine strain titers after RAD001 dosing versus placebo; format: in vivo, human; details: 4 weeks after vaccination; RAD001 dosing cohorts; intention to treat population
# Experimental: In FIG. 1A, the increase above baseline in influenza geometric mean titers to each of the 3 influenza vaccine strains (H1N1 A/California/07/2009, H3N2 A/Victoria/210/2009, B/Brisbane/60/2008) relative to the increase in the placebo cohort 4 weeks after vaccination is shown for each of the RAD001 dosing cohorts in the intention to treat population. […] FIG. 1B is a graph of the same data as in FIG. 1A for the subset of subjects with baseline influenza titers <=1:40.
# RAD001 concentrations (1 hour post dose) were measured after subjects had been dosed for 4 weeks. All subjects who had pharmacokinetic measurements were included in the analysis set. The fold increase in geometric mean titers at 4 weeks post vaccination relative to baseline is shown on the y axis.
# [2] = tested on: heterologous influenza strains (A/H1N1 strain A/New Jersey/8/76 and A/H3N2 strain A/Victoria/361/11); parameters: species or system human; details: in vivo
# [3] = tested on: A/H1N1/California/07/2009 influenza; experiment: Anti-A/H1N1/California/07/2009 influenza IgG and IgM levels in serum before and after vaccination; format: in vivo, human; details: all p values >0.05 by Kruskal-Wallis rank sum test
# Experimental: FIGS. 4A and 4B are graphic representations of IgG and IgM levels before and after influenza vaccination. Levels of anti-A/H1N1/California/07/2009 influenza IgG and IgM were measured in serum obtained from subjects before and 4 weeks post influenza vaccination.
# [4] = tested on: PD-1-positive CD4, CD8 and PD-1-negative CD4 T cells; parameters: species or system human; details: in vivo
# [5] = tested on: A/H3N2 strain A/Victoria/361/11; experiment: Hemagglutination inhibition titers to heterologous A/H3N2 strain not in the vaccine; format: in vivo, human
# [6] = tested on: 3 influenza vaccine strains; parameters: species or system human; details: in vivo
# [7] = tested on: A/H1N1/California/07/2009; experiment: Serum anti-influenza IgG and IgM levels before and 4 weeks after vaccination; format: in vivo, human; details: RAD001 vs placebo treated cohorts
# Experimental: The trial was observer-blind because the placebo in the RAD001 0.5 mg daily and 20 mg weekly cohorts differed slightly from the RAD001 tablets in those cohorts. […] The treatment duration for all cohorts was 6 weeks during which time subjects underwent safety evaluations in the clinic every 2 weeks. After subjects had been dosed for 4 weeks, RAD001 steady state levels were measured pre-dose and at one hour post dose. […] Antibody titers to the 3 influenza vaccine strains as well as to 2 heterologous strains (A/H1N1 strain A/New Jersey/8/76 and A/H3N2 strain A/Victoria/361/11) were measured by standard hemagglutination inhibition assay (Kendal, A P et al. (1982) Concepts and procedures for laboratory-based influenza surveillance. Atlanta: Centers for Disease Control and Prevention B17-B35). Levels of IgG and IgM specific for the A/H1N1/California/07/2009 were measured in serum samples taken before and 4 weeks after influenza vaccination as described previously (Spensieri, F. et al. (2013) Proc. Natl. Acad. Sci. USA 110:14330-14335). Results were expressed as fluorescence intensity.
# [8] = tested on: PD-1 positive CD4 and CD8 T cells; parameters: species or system human; details: in vivo
# [9] = tested on: huCART19 cells; experiment: 4 day co-culture proliferation assay of CART cells with NALM6 target cells; format: cell-based, human; details: 4 day co-culture with NALM6, 1:1
# [10] = tested on: NALM6-luc tumors; experiment: Growth of NALM6-luc tumors in NSG mice; format: in vivo; details: daily oral dosing of RAD001 alone
# [11] = PK analysis of RAD001 in blood of tumor bearing NSG mice; format: in vivo; details: for concentration at 24 h: mouse, whole blood
# Experimental: RAD001 dosing: A concentrated micro-emulsion of 50 mg equal to 1 mg RAD001 was formulated and then resuspended in D5W (dextrose 5% in water) at the time of dosing. Mice were orally dosed daily (via oral gavage) with 200 μl of the desired doses of RAD001.
# PK analysis: Mice were dosed daily with RAD001 starting 7 days post tumor implantation. Dosing groups were as follows: 0.3 mg/kg, 1 mg/kg, 3 mg/kg, and 10 mg/kg. Mice were bled on days 0 and 14 following the first and last dose of RAD001, at the following time points for PK analysis: 15 minutes, 30 minutes, 1 hour, 2 hours, 4 hours, 8 hours, 12 hours, and 24 hours.
# [12] = in vivo
# [13] = tested on: pneumococcal serotypes; details: all 3 RAD cohorts; 7 of 23 serotypes measured
# [14] = elderly subjects
# [15] = tested on: humanized CD19 CART cells; details: RAD001 0.003 mg/kg daily with huCTL019; compared with normal level of huCAR19 proliferation
compound,measurement,setting,value
"CO[C@H]1C[C@@H]2CC[C@@H](C)[C@@](O)(O2)C(=O)C(=O)N2CCCC[C@H]2C(=O)O[C@H]([C@H](C)C[C@@H]2CC[C@@H](OCCO)[C@H](OC)C2)CC(=O)[C@H](C)/C=C(\C)[C@@H](O)[C@@H](OC)C(=O)[C@H](C)C[C@H](C)/C=C/C=C/C=C/1C [RAD001, (1R,9S,12S,15R,16E,18R,19R,21R,23S,24E,26E,28E,30S,32S,35R)-1,18-dihydroxy-12-{(1R)-2-[(1S,3R,4R)-4-(2-hydroxyethoxy)-3-methoxycyclohexyl]-1-methylethyl}-19,30-dimethoxy-15,17,21,23,29,35-hexamethyl-11,36-dioxa-4-aza-tricyclo[30.3.1.04,9]hexatriaconta-16,24,26,28-tetraene-2,3,10,14,20-pentaone]",increase above baseline in influenza geometric mean titers to the 3 influenza vaccine strains relative to placebo,[1],increase in titers
same,increase above baseline in influenza geometric mean titers to 2 heterologous influenza strains relative to placebo,[2],increase in titers
same,"change from baseline to 4 weeks post vaccination in anti-H1N1 influenza IgG and IgM levels, RAD001 versus placebo cohorts",[3],No significant difference
same,"decrease in PD-1+ CD4 T cells, pooled RAD cohort compared to placebo",[4],30.2%
same,decrease in PD-1-positive CD4 T cells as compared to placebo cohort,[4],−37.1-−28.5%
same,"decrease in PD-1-positive CD4 T cells, pooled RAD cohort compared to placebo",[4],32.7%
same,decrease in PD-1-positive CD8 T cells as compared to placebo cohort,[4],−43.3-−38.5%
same,"decrease in PD-1-positive CD8 T cells, pooled RAD001 cohort compared to placebo",[4],37.4% and 41.4%
same,increase in PD-1-negative CD4 T cells as compared to placebo cohort,[4],3.0-4.9%
same,Percentage of subjects who seroconvert to heterologous A/H3N2 strain A/Victoria/361/11 4 weeks after seasonal influenza vaccination,[5]; 0.5 mg daily,38%
same,Percentage of subjects who seroconvert to heterologous A/H3N2 strain A/Victoria/361/11 4 weeks after seasonal influenza vaccination,"[5]; 5 mg weekly, * p < 0.05 vs placebo",39%*
same,Percentage of subjects who seroconvert to heterologous A/H3N2 strain A/Victoria/361/11 4 weeks after seasonal influenza vaccination,"[5]; 20 mg weekly, * p < 0.05 vs placebo",40%*
same,Increase in the HI GMT ratio for the heterologous strain,[5]; RAD001 vs placebo cohorts,higher in the RAD001 as compared to placebo cohorts
same,H3N2 heterologous strain seroconversion rate,"[5]; pooled RAD001 cohorts, versus 20% for placebo, p=0.007",39%
same,Primary endpoint of the study (HI GMT ratio >=1.2-fold relative to placebo in at least 2 of 3 strains),[6],met the GMT primary endpoint
same,RAD001-associated increase in influenza titers in subgroup analysis,[6],greater RAD001-associated increase in titers than did the ITT population
same,Post-vaccination anti-influenza IgM and IgG levels,[7],did not differ between RAD001 and placebo treated cohorts
same,Decrease in PD-1 positive CD4 T cells compared to placebo cohort,[8],30.2% and 32.7%
same,Decrease in PD-1 positive CD8 T cells compared to placebo cohort,[8],37.4% and 41.4%
same,Percentage of CD4 PD-1 positive T cells,[8],decreased from baseline
same,Percentage of CD8 PD-1 positive cells,[8],decreased from baseline
same,Percentage of PD-1 negative CD4 T cells,[8],increased
same,RAD001 concentration in whose presence huCART19 cells expanded (lesser extent at higher concentrations),[9],less than 0.016 nM
same,Impact on the growth of NALM6-luc tumors,[10],did not have an impact
same,concentration at 24 h,"[11]; NSG, lowest dose tested (0.3 mg/kg) oral daily, day 0 and day 14, read-out: RAD001 concentration in the blood 24 hours after dosing",> 10 nM
same,Stability in the blood of tumor bearing mice,"[11]; daily oral dosing, day 0 and day 14 PK",fairly stable
same,concentration at 24 h,"[11]; 0.3 mg/kg, NSG mice, daily oral dosing, read-out: Concentration of RAD001 24 hours after the final dose",> 10 nM
same,Trough level of the immunization study regimens relative to approved transplant and oncology regimens,[12]; human,3-20 fold lower
same,Average RAD001 trough level,[12],below detection limits
same,Pneumococcal serotypes with increased antibody titers compared to placebo,[13],6/7
same,exercise and energy,[14],increases in exercise and energy
same,CAR T cell proliferation in vivo (CD4+ and CD8+ CAR T cells),[15],enhancement in CAR T cell proliferation
